# Measured values published in patent US5208145A, “Assay for the presence, in cultured cells, of functional ligand-gated channels, and substances which enhance intracellular lithium accumulation by cultured cells via such channels” (The Salk Institute for Biological Studies, priority 1991, dated 1993).
# Test system: PC12 cells
# Settings: sodium formulated buffer plus 10 μM nicotine, 3H-thymidine incorporation, FIG. 1
# Method: To subculture, these cells were dislodged from the culture dish by pipetting medium across the culture surface, disassociated by vigorous repeat pipetting, and then distributed to new culture dishes containing fresh media. All cells were maintained at 37° C. in a humidified atmosphere supplemented to 5 percent with CO2.
# PC12 cells were distributed to 96 well Costar culture dishes (10^4 cells/well) and the cells were allowed to recover for 24 to 36 hours prior to use. Cells were never allowed to reach confluency. To conduct a lithium-flux experiment, the culture medium was removed and gently replaced with flux-buffer composed of 1.8 mM CaCl2, 25 mM glucose, 10 mM HEPES (pH 7.4), and 115 mM in either sodium chloride or lithium chloride. Each buffer was filter sterilized and supplemented with agonist, antagonist, or both, as described for the experiment being conducted. […] For PC12 cells, culture was then continued as usual for 6 hours before quantitating ^3 H-thymidine incorporation. […]
# To determine the incorporation of ^3 H-thymidine into fluxed cells, dishes were frozen at -70°, thawed, and the DNA from each well was collected on glass filters using a Cambridge PhD cell harvester. […] Glass filters were dried, resuspended in Ecolume (ICN) scintillation cocktail, and counted in an LKB Wallace 2010 scintillation counter at 34 percent efficiency.
smiles,measurement,value
CN1CCCC1c1cccnc1 (stereo not shown) [nicotine],effect of the presence of nicotine on cell cycle time of PC12 cells,does not alter the cell cycle time of PC12 cells
